Results from ChEMBL document CHEMBL4480424, “Bialternacins A-F, Aromatic Polyketide Dimers from an Endophytic Alternaria sp” (J Nat Prod, 2019).
Activity calls are given as the source filed them. No cut-off for these calls is given here.

Target: Acetylcholinesterase (Homo sapiens, UniProt P22303)
Assay: Inhibition of AChE (unknown origin) using acetylthiocholine iodide as substrate after 5 mins by spectrophotometric analysis

Sequence of Acetylcholinesterase (P22303 whole entry): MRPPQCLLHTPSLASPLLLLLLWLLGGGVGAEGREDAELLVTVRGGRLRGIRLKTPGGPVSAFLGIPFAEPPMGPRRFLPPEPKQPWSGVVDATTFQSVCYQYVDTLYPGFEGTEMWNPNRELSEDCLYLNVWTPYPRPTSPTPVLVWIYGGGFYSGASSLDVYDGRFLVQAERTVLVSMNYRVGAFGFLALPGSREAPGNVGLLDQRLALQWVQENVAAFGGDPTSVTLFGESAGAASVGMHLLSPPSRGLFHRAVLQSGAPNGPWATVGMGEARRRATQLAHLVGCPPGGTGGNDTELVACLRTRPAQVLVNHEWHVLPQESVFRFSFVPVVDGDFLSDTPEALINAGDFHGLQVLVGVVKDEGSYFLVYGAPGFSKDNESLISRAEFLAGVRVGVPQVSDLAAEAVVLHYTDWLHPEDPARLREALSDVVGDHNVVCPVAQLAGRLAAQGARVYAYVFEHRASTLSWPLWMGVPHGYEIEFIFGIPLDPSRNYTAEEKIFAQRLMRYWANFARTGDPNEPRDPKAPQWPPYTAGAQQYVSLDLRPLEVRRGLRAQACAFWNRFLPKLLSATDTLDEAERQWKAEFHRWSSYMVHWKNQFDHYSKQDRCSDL

## COc1cc(O)c(C(=O)O)c(-c2c(C)cc(O)c3oc4c(c23)C2(OC(=O)c3c(O)cc(OC)cc32)C(C)=CC4=O)c1 (stereo in doubt; (-)-2)
  inhibition: inactive

## COc1cc(O)c(C(=O)O)c(-c2c(C)cc(O)c3oc4c(c23)C2(OC(=O)c3c(O)cc(OC)cc32)C(C)=CC4=O)c1 (stereo in doubt; (+)-2)
  inhibition: inactive

## COc1cc(O)c2c(c1)C1=C(c3c(O)c(O)cc(C)c3-c3cc(OC)cc(O)c3C(=O)O)C(=O)C(O)=CC1(C)OC2=O (stereo not given)
  IC50: 15.5 µM
  inhibition: inactive

## COc1cc(O)c(C(=O)O)c(-c2c(C)cc(O)c(O)c2-c2c(O)c(O)cc(C)c2-c2cc(OC)cc(O)c2C(=O)O)c1
  inhibition: inactive

## COc1cc(O)c(C(C)=O)c(-c2c(C)cc(O)c3oc4c(O)cc(C)c(-c5cc(OC)cc(O)c5C(=O)O)c4c23)c1
  IC50: 68.3 µM

## COc1cc(O)c2c(c1)C1=CC3=Nc4cc(C)c(-c5cc(OC)cc(O)c5C(=O)O)cc4O[C@]3(O)C[C@]1(C)OC2=O
  inhibition: inactive

## COc1cc(O)c2c(c1)C1=CC3=Nc4cc(C)c(-c5cc(OC)cc(O)c5C(=O)O)cc4O[C@@]3(O)C[C@@]1(C)OC2=O
  inhibition: inactive

## COc1cc(O)c2c(c1)C1=C(C3=C4c5cc(OC)cc(O)c5C(=O)OC4(C)C=C(O)C3=O)C(=O)C(O)=CC1(C)OC2=O (stereo in doubt; (+)-6)
  inhibition: inactive

## COc1cc(O)c2c(c1)C1=C(C3=C4c5cc(OC)cc(O)c5C(=O)OC4(C)C=C(O)C3=O)C(=O)C(O)=CC1(C)OC2=O (stereo in doubt; (-)-6)
  inhibition: inactive
